Ki and melting point data for 19 molecules are collected here from US7511033B2, “Dihydro-benzo[B][1,4]diazepin-2-one sulfonamide derivatives” (Hoffmann-La Roche Inc., priority 2007, dated 2009).

The target in one series is T1, rat mGlu2 receptor (Rattus norvegicus, UniProt P31421).
T1 construct: expressed in transfected cells; membranes prepared from them
Kind of series: [3H]-LY354740 binding on mGlu2 transfected CHO cell membranes. The note with it: inhibition of 10 nM [3H]-LY354740 binding, room temperature, 1 hour. From the text:
[^3H]-LY354740 Binding on mGlu2 Transfected CHO Cell Membranes. Transfection and Cell Culture
cDNA encoding the rat mGlu2 receptor protein in pBluescript II was subcloned into the eukaryotic expression vector pcDNA I-amp from Invitrogen Ltd (Paisley, UK). This vector construct (pcD1 mGR2) was co-transfected with a psvNeo plasmid encoding the gene for neomycin resistance, into CHO cells by a modified calcium phosphate method described by Chen & Okayama (1988). The cells were maintained in Dulbecco's Modified Eagle medium with reduced L-glutamine (1 mM final concentration), 36 mg/L L-Proline and 10% dialysed foetal calf serum from Gibco-Invitrogen; the medium was supplemented with 500 microM α-methyl-4-carboxyphenylglycine (MCPG). Selection was made in the presence of G-418 (300 ug/ml final concentration). Clones were identified by reverse transcription of 5 μg total RNA, followed by PCR using mGlu2 receptor specific primers 5′-[…]-3′ and 5′-[…]-3′ in 60 mM Tris HCl (pH 10), 15 mM (NH4)2SO4, 2 mM MgCl2, 25 units/ml Taq Polymerase with 30 cycles annealing at 60° C. for 1 min., extension at 72° C. for 30 s, and 1 min. 95° C. denaturation.
Cells, cultured as above, were harvested and washed three times with cold PBS and frozen at −80° C. The pellet was resuspended in cold 20 mM HEPES-NaOH buffer containing 10 mM EDTA (pH 7.4), and homogenized with a polytron (Kinematica, AG, Littau, Switzerland) for 10 s at 10 000 rpm. After centrifugation for 30 min. at 4° C., the pellet was washed once with cold 20 mM HEPES-NaOH buffer containing 0.1 mM EDTA, (pH 7.4). After a second centrifugation for 30 min. at 4° C. the pellet was resuspended in cold 20 mM HEPES-NaOH buffer containing 0.1 mM EDTA, (pH 7.4). Protein content was measured using the Micro BCA method from Pierce-Perbio (Rockford, Ill., USA) using bovine serum albumin as standard.
After thawing, the membranes were resuspended in cold 50 mM Tris-HCl buffer containing 2 mM MgCl2 (pH 7.4) (binding buffer). The final concentration of the membranes in the assays was 25 μg protein/ml. Inhibition experiments were performed with membranes incubated with 10 nM [^3H]-LY354740 at room temperature, for 1 hour, in presence of various concentrations of the compound to be tested. Following the incubations, membranes were filtered onto Whatmann GF/B glass fiber filters or onto GF/B Unifilter plates and washed 5 times with cold binding buffer. Non specific binding was measured in the presence of 10 μM (2S,2′R,3′R)-2-(2′3′-Dicarboxycyclopropyl)glycine (DCG IV from Tocris, Ellisville, Mo. USA). After transfer of the filters into plastic vials containing 10 ml of Ultima-gold scintillation fluid from Perkin-Elmer (Boston, Mass., USA), the radioactivity was measured by liquid scintillation in a Tri-Carb 2500 TR counter (Packard, Zürich, Switzerland). For 96-Unifilter plates the radioactivity was measured after addition of Microscint 40 scintillation fluid (Perkin Elmer, Boston Mass.) using a TopCount NXT (Packard)
The inhibition curves were fitted with a four parameter logistic equation giving IC50 values, and Hill coefficients.

The structures appear in SMILES notation.

T1 sequence (P31421 19-872): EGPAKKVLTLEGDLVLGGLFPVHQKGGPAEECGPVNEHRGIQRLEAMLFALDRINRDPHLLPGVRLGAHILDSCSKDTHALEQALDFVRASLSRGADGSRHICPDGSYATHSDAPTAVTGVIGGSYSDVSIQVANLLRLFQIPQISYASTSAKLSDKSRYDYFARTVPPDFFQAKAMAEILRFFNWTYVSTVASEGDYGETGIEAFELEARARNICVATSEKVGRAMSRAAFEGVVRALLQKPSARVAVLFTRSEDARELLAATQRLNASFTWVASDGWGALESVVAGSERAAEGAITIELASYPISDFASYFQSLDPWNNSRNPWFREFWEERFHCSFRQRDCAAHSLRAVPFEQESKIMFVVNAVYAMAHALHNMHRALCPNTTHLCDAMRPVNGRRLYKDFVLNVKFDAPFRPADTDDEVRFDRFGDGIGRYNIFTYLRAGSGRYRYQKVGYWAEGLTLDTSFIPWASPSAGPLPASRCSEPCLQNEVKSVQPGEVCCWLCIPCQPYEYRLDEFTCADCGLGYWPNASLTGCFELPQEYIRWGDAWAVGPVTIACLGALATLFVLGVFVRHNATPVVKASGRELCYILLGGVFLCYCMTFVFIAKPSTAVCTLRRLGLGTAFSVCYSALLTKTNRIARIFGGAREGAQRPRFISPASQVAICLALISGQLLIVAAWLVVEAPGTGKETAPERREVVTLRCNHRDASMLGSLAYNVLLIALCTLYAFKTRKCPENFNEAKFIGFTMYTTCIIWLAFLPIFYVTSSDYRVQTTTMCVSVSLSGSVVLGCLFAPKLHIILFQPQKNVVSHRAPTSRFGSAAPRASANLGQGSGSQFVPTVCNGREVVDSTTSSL

The molecule `CCOc1cc2c(cc1C(F)(F)F)NC(=O)CC(c1cccc(-c3cccc(S(=O)(=O)NC(C)(C)C)c3)c1)=N2` [Example 6, 3′-(8-Ethoxy-4-oxo-7-trifluoromethyl-4,5-dihydro-3H-benzo[b][1,4]diazepin-2-yl)-biphenyl-3-sulfonic acid tert-butylamide] returned a melting point of 215 to 218 °C. Besides, the affinity on rat mGlu2 receptor corresponds to a Ki of 9 nM.

For `Cc1cc2c(cc1C(F)(F)F)NC(=O)CC(c1cccc(-c3cccc(S(=O)(=O)NC(C)(C)C)c3)c1)=N2` [Example 2, 3′-(8-Methyl-4-oxo-7-trifluoromethyl-4,5-dihydro-3H-benzo[b][1,4]diazepin-2-yl)-biphenyl-3-sulfonic acid tert-butylamide], the melting point is 133 °C (dec.). At rat mGlu2 receptor, this molecule displayed a Ki of 20 nM. Taken in the same sequence, the figures for `CCOc1cc2c(cc1C(F)(F)F)NC(=O)CC(c1cccc(-c3ccc(S(=O)(=O)NC(C)(C)C)cc3)c1)=N2` [Example 7, 3′-(8-Ethoxy-4-oxo-7-trifluoromethyl-4,5-dihydro-3H-benzo[b][1,4]diazepin-2-yl)-biphenyl-4-sulfonic acid tert-butylamide] were > 260 °C and 30 nM.

For the molecule `CCOc1cc2c(cc1C(F)(F)F)NC(=O)CC(c1cccc(-c3cccc(S(N)(=O)=O)c3)c1)=N2` [Example 10, 3′-(8-Ethoxy-4-oxo-7-trifluoromethyl-4,5-dihydro-3H-benzo[b][1,4]diazepin-2-yl)-biphenyl-3-sulfonic acid amide], the melting point was 210 to 220 °C (dec.). The molecule also yielded a Ki on rat mGlu2 receptor of 2.7 nM. As for `CN(C)c1cc2c(cc1C(F)(F)F)NC(=O)CC(c1cccc(-c3cccc(S(N)(=O)=O)c3)c1)=N2` [Example 13, 3′-(8-Dimethylamino-4-oxo-7-trifluoromethyl-4,5-dihydro-3H-benzo[b][1,4]diazepin-2-yl)-biphenyl-3-sulfonic acid amide], the melting point was 258 °C (dec.). Also, on rat mGlu2 receptor, the affinity corresponds to a Ki of 1.2 nM. Consider `CC(C)(C)NS(=O)(=O)c1cccc(-c2cccc(C3=Nc4ccc(C(F)(F)F)cc4NC(=O)C3)c2)c1` [Example 4, 3′-(4-Oxo-7-trifluoromethyl-4,5-dihydro-3H-benzo[b][1,4]diazepin-2-yl)-biphenyl-3-sulfonic acid tert-butylamide], for which the melting point fell in the range of 179 to 181 °C. Also, the Ki at rat mGlu2 receptor came to 12 nM. On to `NS(=O)(=O)c1ccc(-c2cccc(C3=Nc4ccc(C(F)(F)F)cc4NC(=O)C3)c2)cc1` [Example 9, 3′-(4-Oxo-7-trifluoromethyl-4,5-dihydro-3H-benzo[b][1,4]diazepin-2-yl)-biphenyl-4-sulfonic acid amide], for which the melting point is 195 to 210 °C (dec.). This molecule also came in with a Ki at rat mGlu2 receptor of 3 nM.

As to `Cc1cc2c(cc1C(F)(F)F)NC(=O)CC(c1cccc(-c3cccc(S(N)(=O)=O)c3)c1)=N2` [Example 3, 3′-(8-Methyl-4-oxo-7-trifluoromethyl-4,5-dihydro-3H-benzo[b][1,4]diazepin-2-yl)-biphenyl-3-sulfonic acid amide], the melting point was 235 to 239 °C (dec.). Besides, the Ki on rat mGlu2 receptor was determined as 0.9 nM.

`NS(=O)(=O)c1cccc(-c2cccc(C3=Nc4ccc(-c5ccccc5F)cc4NC(=O)C3)c2)c1` [Example 17, 3′-[7-(2-Fluoro-phenyl)-4-oxo-4,5-dihydro-3H-benzo[b][1,4]diazepin-2-yl]-biphenyl-3-sulfonic acid amide] had a melting point of 230 to 232 °C. The molecule also gave a Ki on rat mGlu2 receptor of 2.2 nM.

Consider `CC(C)CNc1cc2c(cc1C(F)(F)F)NC(=O)CC(c1cccc(-c3cccc(S(N)(=O)=O)c3)c1)=N2` [Example 19, 3′-(8-Isobutylamino-4-oxo-7-trifluoromethyl-4,5-dihydro-3H-benzo[b][1,4]diazepin-2-yl)-biphenyl-3-sulfonic acid amide], for which the melting point is 251 °C (dec.). The Ki at rat mGlu2 receptor came out at 3.6 nM.

With `CCOc1cc2c(cc1C(F)(F)F)NC(=O)CC(c1cccc(-c3ccc(S(N)(=O)=O)cc3)c1)=N2` [Example 11, 3′-(8-Ethoxy-4-oxo-7-trifluoromethyl-4,5-dihydro-3H-benzo[b][1,4]diazepin-2-yl)-biphenyl-4-sulfonic acid amide], the melting point was 245 to 250 °C (dec.). On rat mGlu2 receptor, this molecule returned an inhibition constant Ki of 3 nM.

`CC(C)(C)NS(=O)(=O)c1ccc(-c2cccc(C3=Nc4ccc(C(F)(F)F)cc4NC(=O)C3)c2)cc1` [Example 5, 3′-(4-Oxo-7-trifluoromethyl-4,5-dihydro-3H-benzo[b][1,4]diazepin-2-yl)-biphenyl-4-sulfonic acid tert-butylamide] registered a melting point of 229 to 233 °C. Besides, on rat mGlu2 receptor, the Ki was 16 nM. Take `CC(C)CN(C)c1cc2c(cc1C(F)(F)F)NC(=O)CC(c1cccc(-c3cccc(S(N)(=O)=O)c3)c1)=N2` [Example 15, 3′-[8-(Isobutyl-methyl-amino)-4-oxo-7-trifluoromethyl-4,5-dihydro-3H-benzo[b][1,4]diazepin-2-yl]-biphenyl-3-sulfonic acid amide]: the melting point is 232 °C (dec.). Moreover, on rat mGlu2 receptor, affinity was put at a Ki of 8.7 nM. Regarding `CC(C)CNc1cc2c(cc1C(F)(F)F)NC(=O)CC(c1cccc(-c3ccc(S(N)(=O)=O)cc3)c1)=N2` [Example 18, 3′-(8-Isobutylamino-4-oxo-7-trifluoromethyl-4,5-dihydro-3H-benzo[b][1,4]diazepin-2-yl)-biphenyl-4-sulfonic acid amide], the Ki at rat mGlu2 receptor stood at 21 nM.

With `NS(=O)(=O)c1ccc(-c2cccc(C3=Nc4ccc(-c5ccccc5F)cc4NC(=O)C3)c2)cc1` [Example 16, 3′-[7-(2-Fluoro-phenyl)-4-oxo-4,5-dihydro-3H-benzo[b][1,4]diazepin-2-yl]-biphenyl-4-sulfonic acid amide], the melting point is 240 to 250 °C (dec.). In addition, the Ki at rat mGlu2 receptor turned out to be 5.6 nM. Consider `NS(=O)(=O)c1cccc(-c2cccc(C3=Nc4ccc(C(F)(F)F)cc4NC(=O)C3)c2)c1` [Example 8, 3′-(4-Oxo-7-trifluoromethyl-4,5-dihydro-3H-benzo[b][1,4]diazepin-2-yl)-biphenyl-3-sulfonic acid amide], for which the melting point was 170 °C (dec.). The molecule also came in with a Ki at rat mGlu2 receptor of 1.7 nM.

As to `CC(C)CN(C)c1cc2c(cc1C(F)(F)F)NC(=O)CC(c1cccc(-c3ccc(S(N)(=O)=O)cc3)c1)=N2` [Example 14, 3′-[8-(Isobutyl-methyl-amino)-4-oxo-7-trifluoromethyl-4,5-dihydro-3H-benzo[b][1,4]diazepin-2-yl]-biphenyl-4-sulfonic acid amide], the melting point is 236 °C (dec.). Further, the affinity on rat mGlu2 receptor corresponds to a Ki of 17 nM.

Turning to `Cc1cc2c(cc1C(F)(F)F)NC(=O)CC(c1cccc(-c3ccc(S(N)(=O)=O)cc3)c1)=N2` [Example 1, 3′-(8-Methyl-4-oxo-7-trifluoromethyl-4,5-dihydro-3H-benzo[b][1,4]diazepin-2-yl)-biphenyl-4-sulfonic acid amide], the melting point was > 260 °C. At rat mGlu2 receptor, the Ki stood at 1.9 nM. For the molecule `CN(C)c1cc2c(cc1C(F)(F)F)NC(=O)CC(c1cccc(-c3ccc(S(N)(=O)=O)cc3)c1)=N2` [Example 12, 3′-(8-Dimethylamino-4-oxo-7-trifluoromethyl-4,5-dihydro-3H-benzo[b][1,4]diazepin-2-yl)-biphenyl-4-sulfonic acid amide], the melting point is 246 °C (dec.). On rat mGlu2 receptor, this molecule displayed a Ki of 3.1 nM.

Usually Ki stands for a dissociation constant, usually derived from enzyme kinetics or from competition with a known ligand. A higher Ki goes with a looser hold on the target. The melting point is the temperature, or range, at which the solid turns liquid.
